For assay [1], the target named is T1, PmSTS_Δ24 (Persicaria minor, UniProt I6XZ73).
T1 construct: N-terminal 24 residues removed from the 562-residue protein; N-terminal His6 tag (pET28b), no cleavage told; E. coli BL21 (DE3); PCR primer codes for Met-AGFKPS start; monomer stated for the full-length enzyme
In words: malachite green phosphate assay coupled to inorganic diphosphatase. The class given is biochemical. The settings on record: 20 mM HEPES pH 8.0, 10 mM MgCl2, 30 °C, 0.1 µM enzyme, 2–30 µM FPP; read-out: Km app.

Assay [2] concerns the target T2, PmSTS_Δ24 (Persicaria minor, UniProt I6XZ73, K266E, form not given).
T2 construct: N-terminal 24 residues removed from the 562-residue protein; N-terminal His6 tag (pET28b), no cleavage told; E. coli BL21 (DE3); PCR primer codes for Met-AGFKPS start; monomer stated for the full-length enzyme
Put plainly: GC-MS product analysis after hexane extraction. In kind it is biochemical. The settings on record: overnight incubation; product beta-sesquiphellandrene.

The text below walks through data of publication PMC5333544, “Purification and biochemical characterization of recombinant Persicaria minor β-sesquiphellandrene synthase” (PeerJ, 2017).

By Km is commonly meant the concentration of substrate that gives half-maximal velocity.

T1 sequence (I6XZ73 entry or part of it, stated change not applied): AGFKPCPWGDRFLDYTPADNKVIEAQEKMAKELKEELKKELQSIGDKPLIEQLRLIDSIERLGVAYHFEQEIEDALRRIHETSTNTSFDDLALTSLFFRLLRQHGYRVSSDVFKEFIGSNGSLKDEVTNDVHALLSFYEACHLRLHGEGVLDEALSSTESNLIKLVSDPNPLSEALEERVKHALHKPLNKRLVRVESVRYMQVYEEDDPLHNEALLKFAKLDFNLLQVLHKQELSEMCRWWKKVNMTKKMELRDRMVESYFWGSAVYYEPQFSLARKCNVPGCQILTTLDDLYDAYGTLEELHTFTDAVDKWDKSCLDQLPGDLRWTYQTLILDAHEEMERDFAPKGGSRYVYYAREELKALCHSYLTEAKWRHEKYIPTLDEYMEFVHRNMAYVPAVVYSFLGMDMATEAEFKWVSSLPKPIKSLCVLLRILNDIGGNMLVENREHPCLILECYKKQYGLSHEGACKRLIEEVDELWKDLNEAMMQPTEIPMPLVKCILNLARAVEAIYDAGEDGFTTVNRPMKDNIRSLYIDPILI
T2 sequence (I6XZ73 entry or part of it K266E, form open): as the sequence (I6XZ73 entry or part of it, stated change not applied) above, with K242E counted along it

With `CC(C)=CCC/C(C)=C/CC/C(C)=C/CO[P@@](=O)(O)OP(=O)(O)O` (stereo in doubt) [farnesyl diphosphate], the Km at PmSTS_Δ24 [1] amounted to 10.2 µM.

Regarding `CC(C)=CCC/C(C)=C/CC/C(C)=C/COP(=O)(O)OP(=O)(O)O` [farnesyl diphosphate], the “GC-MS product analysis after hexane extraction” value at PmSTS_Δ24 [2] is on record as “mutant protein K266E produced using an E. coli expression system displayed a product profile”.
